Measured values as given in patent US7906491B2 (Univisitair Medisch Centrum Utrecht, priority 2002, dated 2011).

Tests used:
PKAI = assay: Relative affinity for PKAI (cAMP = 1), in vitro; assay type: binding; settings: relative to cAMP = 1
CREB = CREB phosphorylation in Ovcar3 cells; assay type: cell-based; settings: concentration of 200 μM
Experimental: A: 8-pCPT-2′-O-Me-cAMP stimulates cell adhesion. Upper panel: quantification of Ovcar3 cells adhering to fibronectin after treatment with increasing concentrations of 8-pCPT-2′-O-Me-cAMP. Lower panel: Ovcar3 cells were treated with increasing concentrations of 8-pCPT-2′-O-Me-cAMP for 15 min, cells were lysed and analyzed for activation of Rap1 (upper blot) and CREB (lower blot). Total Rap1 levels are shown (middle blot). B: 8-pCPT-2′-O-Me-cAMP increases the rate of cell adhesion. Upper panel: quantification of Ovcar3 cells adhering to fibronectin at various time points. Lower panel: cells were treated with 60 μM 8-pCPT-2′-O-Me-cAMP for the indicated times. Cell lysates were analyzed for activation of Rap1 (upper blot) and CREB (lower blot). Total levels of Rap1 in cell lysates are shown (middle blot). C: Ovcar3 cells were either pre-incubated at 37° C. for 30 min with the PKA inhibitor H-89 (10 μM) 30 min prior to seeding onto the wells (‘Short’) or H-89 was added 30 min prior to trypsinization and during the recovery period (‘Long’) and seeded onto wells in the absence or presence of 8-pCPT-2′-O-Me-cAMP (100 μM). Cells were allowed to adhere for 1 h. D, cAMP-induced adhesion to fibronectin is blocked by inhibitors of Rap1. […] Cells were treated with 8-Br-cAMP or 8-pCPT-2′-O-Me-cAMP and adhesion to fibronectin was determined. […]

Ovcar3 cells = assay: Adhesion of Ovcar3 cells to poly-L-lysine (integrin-independent); assay type: cell-based; settings: FIG. 8
Experimental: Upper panel: a βl integrin-blocking peptide containing the RGD sequence present in fibronectin inhibits 8-pCPT-2′-O-Me-cAMP-induced cell adhesion. Ovcar3 cells were pre-treated for 20 minutes with RGD-peptide (100 μM) where indicated, and seeded in wells with or without 8-pCPT-2′-O-Me-cAMP. Cells were allowed to adhere for 1 h. […] Ovcar3 cells were seeded onto poly-L-lysine-coated plates. At various time points, adherent cells were quantified.
24-well plates were coated overnight with 2 μg/ml fibronectin (Sigma, St. Louis, Mo., USA) in sodium bicarbonate buffer (Sigma, St. Louis, Mo., USA). […] Cells were centrifuged, counted and resuspended at 3×10^5 cells/ml in serum-free RPMI with 0.5% BSA. […] Adherent cells were lysed in luciferase lysis buffer (15% glycerol, 25 mM Tris-phosphate pH 7.8, 1% Triton X-100, 8 mM MgCl2, 1 mM DTT) at 4° C. for 30 min and units of luciferase activity were quantified with addition of equal volume of luciferase assay buffer (25 mM Tris-phosphate pH 7.8, 8 MM MgCl2, 1 mM DTT, 1 mM ATP pH 7, 1 mM luciferin) using a luminometer (Lumat LB9507; Berthold Technologies, Belgium). […] Specific adhesion (%) was determined (counts in cells bound/counts in total input×100) and plotted either directly or relative to the basal adhesion of HA vector-transfected cells. […]

[1] = system: extracellular signal-regulated kinase (ERK); assay: ERK activation / inactivation in vivo (cells); assay type: cell-based
human pancreatic β-cells = settings: cited from earlier work
[2] = system: INS-1 insulin-secreting cells; settings: cited from earlier work

Question: With `CO[C@@H]1[C@@H]2OP(=O)(O)OC[C@H]2O[C@H]1n1c(Sc2ccc(Cl)cc2)nc2c(N)ncnc21` [Compound I-007, 8-(4-chloro-phenylthio)-2′-O-methyladenosine-3′,5′-cyclic monophosphate] as the molecule, how does the “Relative affinity CAMP = 1 PKAI” value (PKAI) read?
Answer: The value was 0.009.

Question: What about the CREB phosphorylation (CREB) of the same molecule?
Answer: Its CREB phosphorylation is “did not induce CREB phosphorylation”.

Question: And the “integrin-independent adhesion to poly-L-lysine” value (Ovcar3 cells)?
Answer: The value was “did not increase”.

Question: What about the “activation and inactivation of ERK” value [1] of the same molecule?
Answer: The value was “affected neither the activation nor the inactivation”.

Question: And the exocytosis (human pancreatic β-cells)?
Answer: Its exocytosis is “induces exocytosis”.

Question: And the “mobilization of Ca2+ from intracellular Ca2+ stores via Epac-mediated CICR” value (human pancreatic β-cells)?
Answer: The value was “can induce mobilization of Ca^2+”.

Question: And the exocytosis [2]?
Answer: Its exocytosis is “induces exocytosis”.

Question: What about the “mobilization of Ca2+ from intracellular Ca2+ stores via Epac-mediated CICR” value [2] of the same molecule?
Answer: Its value is “can induce mobilization of Ca^2+”.
